According to patent publication US10376520B2, “Methods for the treatment of cardiovascular disorders” (Galapagos NV, priority 2015, dated 2019):

System: RA patients
Assay: Atherogenic index, Study 1 (RA patients, add-on to MTX)
Type: in vivo, human
Protocol: As used herein, the term ‘atherogenic index’ refers to
Double-blind, placebo-controlled add on study in subjects with moderately to severely active RA who have an inadequate response to methotrexate (MTX) (oral or parenteral).
Compound 1 (dosed as a [Compound 1:HCl:3H2O]) is dosed for twelve weeks once daily (q.d.) (50 mg, 100 mg or 200 mg) or twice daily (b.i.d.) (25 mg, 50 mg or 100 mg); or placebo.
At Week 12, the subjects on placebo who have not achieved 20% improvement in swollen joint count (SJC66) and tender joint count (TJC68) are re-randomized automatically to receive Compound 1 (dosed as a [Compound 1:HCl:3H2O]) either at 100 mg q.d. or 50 mg b.i.d. doses in a blinded fashion; subjects on 50 mg q.d. who have not achieved 20% improvement in SJC66 and TJC68 will be assigned to 100 mg q.d. and subjects on 25 mg b.i.d. that have not achieved a 20% improvement in SJC66 and TJC68 will be assigned to 50 mg b.i.d. Subjects who switch treatment at week 12 are handled as if they discontinued at week 12 for the purpose of statistical analysis, whereas subjects in the other groups will maintain their randomized treatment until Week 24.
The atherogenic index has been identified to be a good predictor of cardiovascular disorders risks and is calculated as follows: […]

[1] = 100 mg b.i.d. continued over 24 weeks, week 1
[2] = 100 mg b.i.d. continued over 24 weeks, week 2
[3] = 100 mg b.i.d. continued over 24 weeks, week 4
[4] = 100 mg b.i.d. continued over 24 weeks, week 8
[5] = 100 mg b.i.d. continued over 24 weeks, week 12
[6] = 100 mg b.i.d. continued over 24 weeks, week 16
[7] = 100 mg b.i.d. continued over 24 weeks, week 20
[8] = 100 mg b.i.d. continued over 24 weeks, week 24
[9] = 100 mg q.d. continued over 24 weeks, week 1
[10] = 100 mg q.d. continued over 24 weeks, week 2
[11] = 100 mg q.d. continued over 24 weeks, week 4
[12] = 100 mg q.d. continued over 24 weeks, week 8
[13] = 100 mg q.d. continued over 24 weeks, week 12
[14] = 100 mg q.d. continued over 24 weeks, week 16
[15] = 100 mg q.d. continued over 24 weeks, week 20
[16] = 100 mg q.d. continued over 24 weeks, week 24

Compound: O=C(Nc1nc2cccc(-c3ccc(CN4CCS(=O)(=O)CC4)cc3)n2n1)C1CC1 [Compound 1, cyclopropanecarboxylic acid {5-[4-(1,1-dioxo-thiomorpholin-4-ylmethyl)-phenyl]-[1,2,4]triazolo[1,5-a]pyridin-2yl}-amide]
- Atherogenic index Median CFB - 12 weeks results (50 mg q.d., week 1): -0.10 mmol/L
- Atherogenic index Mean CFB (50 mg q.d., week 2): -0.13 mmol/L
- Atherogenic index Mean percentage CFB - 12 weeks results (50 mg q.d., week 2): −3%
- Atherogenic index Median CFB - 12 weeks results (50 mg q.d., week 2): -0.20 mmol/L
- Atherogenic index Mean CFB (50 mg q.d., week 4): -0.11 mmol/L
- Atherogenic index Mean percentage CFB - 12 weeks results (50 mg q.d., week 4): −3%
- Atherogenic index Median CFB - 12 weeks results (50 mg q.d., week 4): -0.10 mmol/L
- Atherogenic index Mean CFB (50 mg q.d., week 8): -0.03 mmol/L
- Atherogenic index Mean percentage CFB - 12 weeks results (50 mg q.d., week 8): 0%
- Atherogenic index Median CFB - 12 weeks results (50 mg q.d., week 8): -0.10 mmol/L
- Atherogenic index Mean CFB (50 mg q.d., week 12): 0.01 mmol/L
- Atherogenic index Mean percentage CFB - 12 weeks results (50 mg q.d., week 12): 2%
- Atherogenic index Median CFB - 12 weeks results (50 mg q.d., week 12): 0.00 mmol/L
- Atherogenic index Mean CFB - 24 weeks results [1]: -0.05 mmol/L
- Atherogenic index Mean percentage CFB - 24 weeks results [1]: −0.38%
- Atherogenic index Median CFB - 24 weeks results [1]: 0.00 mmol/L
- Atherogenic index Mean CFB - 24 weeks results [2]: -0.19 mmol/L
- Atherogenic index Mean percentage CFB - 24 weeks results [2]: −4.84%
- Atherogenic index Median CFB - 24 weeks results [2]: -0.20 mmol/L
- Atherogenic index Mean CFB - 24 weeks results [3]: -0.30 mmol/L
- Atherogenic index Mean percentage CFB - 24 weeks results [3]: −6.94%
- Atherogenic index Median CFB - 24 weeks results [3]: -0.30 mmol/L
- Atherogenic index Mean CFB - 24 weeks results [4]: -0.18 mmol/L
- Atherogenic index Mean percentage CFB - 24 weeks results [4]: −3.54%
- Atherogenic index Median CFB - 24 weeks results [4]: -0.20 mmol/L
- Atherogenic index Mean CFB - 24 weeks results [5]: -0.24 mmol/L
- Atherogenic index Mean percentage CFB - 24 weeks results [5]: −4.76%
- Atherogenic index Median CFB - 24 weeks results [5]: -0.20 mmol/L
- Atherogenic index Mean CFB - 24 weeks results [6]: -0.25 mmol/L
- Atherogenic index Mean percentage CFB - 24 weeks results [6]: −5.23%
- Atherogenic index Median CFB - 24 weeks results [6]: -0.30 mmol/L
- Atherogenic index Mean CFB - 24 weeks results [7]: -0.24 mmol/L
- Atherogenic index Mean percentage CFB - 24 weeks results [7]: −5.40%
- Atherogenic index Median CFB - 24 weeks results [7]: -0.20 mmol/L
- Atherogenic index Mean CFB - 24 weeks results [8]: -0.18 mmol/L
- Atherogenic index Mean percentage CFB - 24 weeks results [8]: −3.70%
- Atherogenic index Median CFB - 24 weeks results [8]: -0.20 mmol/L
- Atherogenic index Mean CFB - 24 weeks results [9]: -0.06 mmol/L
- Atherogenic index Mean percentage CFB - 24 weeks results [9]: −0.13%
- Atherogenic index Median CFB - 24 weeks results [9]: -0.10 mmol/L
- Atherogenic index Mean CFB - 24 weeks results [10]: -0.17 mmol/L
- Atherogenic index Mean percentage CFB - 24 weeks results [10]: −2.80%
- Atherogenic index Median CFB - 24 weeks results [10]: -0.10 mmol/L
- Atherogenic index Mean CFB - 24 weeks results [11]: -0.11 mmol/L
- Atherogenic index Median CFB - 24 weeks results [11]: -0.10 mmol/L
- Atherogenic index Mean CFB - 24 weeks results [12]: -0.11 mmol/L
- Atherogenic index Mean percentage CFB - 24 weeks results [12]: −1.34%
- Atherogenic index Median CFB - 24 weeks results [12]: -0.10 mmol/L
- Atherogenic index Mean CFB - 24 weeks results [13]: -0.06 mmol/L
- Atherogenic index Mean percentage CFB - 24 weeks results [13]: −0.45%
- Atherogenic index Median CFB - 24 weeks results [13]: -0.10 mmol/L
- Atherogenic index Mean CFB - 24 weeks results [14]: -0.18 mmol/L
- Atherogenic index Mean percentage CFB - 24 weeks results [14]: −3.49%
- Atherogenic index Median CFB - 24 weeks results [14]: -0.20 mmol/L
- Atherogenic index Mean CFB - 24 weeks results [15]: -0.27 mmol/L
- Atherogenic index Mean percentage CFB - 24 weeks results [15]: −5.64%
- Atherogenic index Median CFB - 24 weeks results [15]: -0.35 mmol/L
- Atherogenic index Mean CFB - 24 weeks results [16]: -0.17 mmol/L
- Atherogenic index Mean percentage CFB - 24 weeks results [16]: −3.81%
- Atherogenic index Median CFB - 24 weeks results [16]: -0.30 mmol/L
- Atherogenic index Mean CFB (100 mg q.d., week 1): -0.06 mmol/L
- Atherogenic index Mean percentage CFB - 12 weeks results (100 mg q.d., week 1): 0%
- Atherogenic index Median CFB - 12 weeks results (100 mg q.d., week 1): -0.10 mmol/L
- Atherogenic index Mean CFB (100 mg q.d., week 2): -0.17 mmol/L
- Atherogenic index Mean percentage CFB - 12 weeks results (100 mg q.d., week 2): −3%
- Atherogenic index Median CFB - 12 weeks results (100 mg q.d., week 2): -0.10 mmol/L
- Atherogenic index Mean CFB (100 mg q.d., week 4): -0.11 mmol/L
- Atherogenic index Mean percentage CFB - 12 weeks results (100 mg q.d., week 4): −2%
- Atherogenic index Median CFB - 12 weeks results (100 mg q.d., week 4): -0.10 mmol/L
- Atherogenic index Mean CFB (100 mg q.d., week 8): -0.11 mmol/L
- Atherogenic index Mean percentage CFB - 12 weeks results (100 mg q.d., week 8): −1%
- Atherogenic index Median CFB - 12 weeks results (100 mg q.d., week 8): -0.10 mmol/L
- Atherogenic index Mean CFB (100 mg q.d., week 12): -0.06 mmol/L
- Atherogenic index Mean percentage CFB - 12 weeks results (100 mg q.d., week 12): 0%
